The record followed here is paper PMC5833389 (Oncogenesis, 2018).

The EC50 is the midpoint of the concentration-response curve.

Assay [1] concerns PC-3 cells. Briefly: Proliferation assay, adherent monolayer, alamarBlue. The format is cell-based, human. The note with it: adherent monolayers. How it is done:
PC-3 cells were incubated with compounds for 5 days at 37 °C/5% CO2, stained with alamarBlue® and fluorescence was determined (544 nm/590 nm). Data were analyzed as described above.

Assay [2] relates to PC-3 cells. Briefly: Clonogenic assay in soft agar (anchorage-independent growth). Conditions: alamarBlue, read-out: Colony formation EC50 PC-3. The format is cell-based, human. How it is done:
Clonogenic assays were performed using agarose-containing media. Cells were incubated at 37 °C and 5% CO2 for 14 days. alamarBlue® was used to detect colonies of viable cells (530 nm/590 nm). Data analysis was performed as described above.
On the technique in general: Alamar Blue is a resazurin reagent that responds to reducing activity.

For `CN(c1ncccc1CNc1nc(Nc2ccc3c(c2)CC(=O)N3)ncc1C(F)(F)F)S(C)(=O)=O` [PF-562,271, reference compound], the EC50 in the assay on PC-3 cells [1] was 1650 nM; in the assay on PC-3 cells [2], 42 nM.
